These results are taken from patent publication US20230192617A1, “AZABICYCLIC(THIO)AMIDES AS FUNGICIDAL COMPOUNDS” (Bayer CropScience Aktiengesellschaft, priority 2020, published 2023).

The nature of series [1]: Measurement of Log P values by HPLC on reversed phase columns (EEC directive 79/831 Annex V.A8). The series is classed as physicochemical. The conditions noted are these: reversed phase HPLC column, method [a]: LC-UV, acidic range, 0.1% formic acid in water and acetonitrile as eluent. As for the experimental part:
A-1.1. Measurement of Log P Values
Measurement of Log P values as provided herein was performed according to EEC directive 79/831 Annex V.A8 by HPLC (High Performance Liquid Chromatography) on reversed phase columns with the following methods:
^[a] Log P value is determined by measurement of LC-UV, in an acidic range, with 0.1% formic acid in water and acetonitrile as eluent (linear gradient from 10% acetonitrile to 95% acetonitrile).
^[b] Log P value is determined by measurement of LC-UV, in a neutral range, with 0.001 molar ammonium acetate solution in water and acetonitrile as eluent (linear gradient from 10% acetonitrile to 95% acetonitrile).
^[c] Log P value is determined by measurement of LC-UV, in an acidic range, with 0.1% phosphoric acid and acetonitrile as eluent (linear gradient from 10% acetonitrile to 95% acetonitrile).
If more than one Log P value is available within the same method, all the values are given and separated by “+”. […]

The test system of series [2] is Pyrenophora teres. The series can be described thus: B-10. Pyrenophora teres in vitro cell test. The class given is cell-based. The conditions noted are these: 144 h, 20 ppm of active ingredient, 6 days incubation, liquid culture, absorbance, read-out: efficacy (inhibition of fungal growth). As for the experimental part: (§1) B-10. Pyrenophora teres In Vitro Cell Test [table] Fungicides were solubilized in DMSO and the solution used to prepare the required range of concentrations. The final concentration of DMSO used in the assay was ≤1%. A spore suspension of P. teres was prepared and diluted to the desired spore density. Fungicides were evaluated for their ability to inhibit spore germination and mycelium growth in liquid culture assay. The compounds were added in the desired concentration to the culture medium with spores. After 6 days incubation, fungi-toxicity of compounds was determined by spectrometric measurement of mycelium growth. Inhibition of fungal growth was determined by comparing the absorbance values in wells containing the fungicides with the absorbance in control wells without fungicides.

Series [3] relates to Botrytis cinerea. The series can be described thus: B-11. Botrytis cinerea in vitro cell test. The series is classed as cell-based. The conditions noted are these: 144 h, 20 ppm of active ingredient, 6 days incubation, liquid culture, absorbance, read-out: efficacy (inhibition of fungal growth). As for the experimental part:
as §1, with “B-11. Botrytis cinerea” for “B-10. Pyrenophora teres”, “B. cinerea” for “P. teres”

In series [4] the test system is Alternaria alternata. The series can be described thus: Alternaria alternata in vitro cell test. The class given is cell-based. The conditions noted are these: 120 h, 20 ppm of active ingredient, liquid culture, 5 days incubation, spectrometric measurement of mycelium growth, read-out: efficacy (inhibition of fungal growth). On the procedure: as §1, with “B-6. Alternaria alternata” for “B-10. Pyrenophora teres”, “A. alternata” for “P. teres”, “5” for “6”

Series [5] has as its system Colletotrichum lindemuthianum. The series can be described thus: B-8. Colletotrichum lindemuthianum in vitro cell test. The series is classed as cell-based. The conditions noted are these: 144 h, 20 ppm of active ingredient, 6 days incubation, liquid culture, absorbance, read-out: efficacy (inhibition of fungal growth). As for the experimental part:
as §1, with “B-8. Colletotrichum lindemuthianum In” for “B-10. Pyrenophora teres In”, “of C. lindemuthianum” for “of P. teres”, “inhibit spores” for “inhibit spore”

The subject of series [6] is Botrytis cinerea. Briefly: In vivo preventive test on Botrytis cinerea (grey mould). The conditions noted are these: 500 ppm of active ingredient, preventive spray on gherkin or cabbage, evaluated 4 to 5 days after inoculation, read-out: efficacy. As for the experimental part: B-2. In Vivo Preventive Test on Botrytis cinerea (Grey Mould) [table] The active ingredients were made soluble and homogenized in a mixture of Dimethyl sulfoxide/Acetone/Tween® 80 and then diluted in water to the desired concentration. The young plants of gherkin or cabbage were treated by spraying the active ingredient prepared as described above. Control plants were treated only with an aqueous solution of Acetone/Dimethyl sulfoxide/Tween® 80. After 24 hours, the plants were contaminated by spraying the leaves with an aqueous suspension of Botrytis cinerea spores. The contaminated gherkin plants were incubated for 4 to 5 days at 17° C. and at 90% relative humidity. The contaminated cabbage plants were incubated for 4 to 5 days at 20° C. and at 100% relative humidity.

The molecule `O=C(NCC(F)(F)c1cc(Cl)sc1Cl)c1c(Oc2cccc(C(F)(F)F)c2)nnc2ccccc12` [I-199] showed a chromatographic logP in series [1] of 4.68. The inhibition at 20 ppm was 90 to 100% in series [2] and 80 to 89% in series [3].
Turning to `Cc1ccc2c(c1)[C@@H](NC(=O)c1c(Oc3cccc(C(F)(F)F)c3)nnc3ccccc13)CC(C)(C)O2` (racemic) [I-173], the chromatographic logP in series [1] was found to be 4.44. In addition, the inhibition at 20 ppm in series [2] and in series [3] was 90 to 100% in each case.
For `Cc1cc(C)n(CCNC(=O)c2c(Oc3cccc(C(F)(F)F)c3)nnc3ccccc23)n1` [I-240], in series [1], the chromatographic logP was 2.78. Moreover, the values for the inhibition at 20 ppm in series [2] and in series [3] were 90 to 100% and 80 to 89%, respectively.
With `Cc1ccc(C(F)(F)F)cc1Oc1nnc2ccccc2c1C(=O)NC[C@H](F)c1ccc(Cl)cc1Cl` (racemic) [I-183], the chromatographic logP in series [1] stood at 4.74. The inhibition at 20 ppm in series [2] lay within 70 to 79%.
Regarding `O=C(N[C@H]1CCOc2ccc(F)cc21)c1c(Oc2cccc(C(F)(F)F)c2)nnc2ccccc12` (racemic) [I-165], the chromatographic logP in series [1] came out at 3.69. For the same molecule, in series [2], the inhibition at 20 ppm lay within 90 to 100%.
With `O=C(NCCc1cccc2[nH]ccc12)c1c(Oc2cccc(C(F)(F)F)c2)nnc2ccccc12` [I-161], the inhibition at 20 ppm in series [2] and in series [3] was 90 to 100% each time.
Take `O=C(NCCc1ccc2[nH]ccc2c1)c1c(Oc2cccc(C(F)(F)F)c2)nnc2ccccc12` [I-249]: the chromatographic logP in series [1] worked out at 3.3. Further, the inhibition at 20 ppm in series [2] and in series [3] was 90 to 100% each time.
With `COc1cc(OC)nc(Oc2cnc3ccccc3c2C(=O)NCC(F)(F)c2ccc(C)cc2C)n1` [I-187], the inhibition at 20 ppm in series [4] lay in the range of 70 to 79%; in series [2] it was 90 to 100%. This molecule also registered a chromatographic logP in series [1] of 3.74.
Consider `CCc1cccc2c1OCC[C@@H]2NC(=O)c1c(Oc2cccc(C(F)(F)F)c2)nnc2ccccc12` (racemic) [I-168], for which the chromatographic logP in series [1] amounted to 4.45. Besides, the inhibition at 20 ppm in series [2], in series [5] and in series [3] was 90 to 100% throughout.
In the case of `O=C(N[C@H]1CCS(=O)(=O)c2ccccc21)c1c(Oc2cccc(C(F)(F)F)c2)nnc2ccccc12` [I-174], the chromatographic logP in series [1] amounted to 2.98. Besides, the inhibition at 20 ppm lay in the range of 80 to 89% in series [2], 80 to 89% in series [5] and 90 to 100% in series [3].
`CC1(C)Cc2cc(Cl)c(F)cc2[C@@H](NC(=O)c2c(Oc3cccc(C(F)(F)F)c3)nnc3ccccc23)C1` (racemic) [I-197] registered a chromatographic logP in series [1] of 4.82. Moreover, the inhibition at 20 ppm in series [2] and in series [3] was 90 to 100% each time.
In the case of `O=C(N[C@H]1CCCc2ccc(Br)cc21)c1c(Oc2cccc(C(F)(F)F)c2)nnc2ccccc12` (racemic) [I-096], the chromatographic logP in series [1] was found to be 4.54. Moreover, the inhibition at 20 ppm in series [2], in series [5] and in series [3] was 90 to 100% each time.
Regarding `O=C(NCCOc1ccc(C(F)(F)F)cc1Cl)c1c(Oc2cccc(C(F)(F)F)c2)nnc2ccccc12` [I-203], in series [1], the chromatographic logP was found to be 4.33. Besides, the inhibition at 20 ppm was 90 to 100% in series [2] and 70 to 79% in series [3].
In series [1], `N#Cc1ccc(CONC(=O)c2c(Oc3cccc(C(F)(F)F)c3)nnc3ccccc23)cc1` [I-088] returned a chromatographic logP of 3.07. Moreover, the inhibition at 20 ppm in series [5] and in series [3] was 90 to 100% each time.
For the molecule `O=C(NCCc1cnc(C(F)(F)F)nc1)c1c(Oc2cccc(C(F)(F)F)c2)nnc2ccccc12` [I-195], the chromatographic logP in series [1] was found to be 3.22. Further, the inhibition at 20 ppm in series [2] fell in the range of 90 to 100%.
Take `O=C(NCC(F)(F)c1ccc(Cl)cc1)c1c(Oc2cccc(C(F)(F)F)c2)cnc2ccccc12` [I-037]: the chromatographic logP in series [1] was found to be 4.23. Also, the inhibition at 20 ppm in series [5] and in series [3] was 90 to 100% in each case. In series [6], the pest or weed control at 500 ppm lay in the range of 80 to 89%.

By chromatographic logP is commonly meant a lipophilicity value derived from retention on a column. Usually inhibition stands for the percentage by which the read-out fell short of the control.
